Laboratory results taken from US10160729B2, “Hsp70 modulators and methods for making and using the same” (Memorial Sloan Kettering Cancer Center, priority 2014, dated 2018).

Tested on: MOLM-13 cells
Experiment: Caspase cleavage assay (Caspase3, 7 activation)
Format: cell-based
Details: Homo sapiens, 16 h treatment, caspase substrate Z-DEVD-R110, read-out: c* Concentration at which 50% of the maximum signal was achieved (caspase activation)
How it was run: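 Cells (30,000/well, RPMI) treated 16 h with compound or DMSO in triplicate, then given buffer with 10 mM HEPES pH 7.5, 2 mM EDTA, 0.1% CHAPS and 25 μM Z-DEVD-R110. Fluorescence read once signal stabilized; results given as percentage increase in apoptotic cells versus DMSO-treated control.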

| EC50 [nM] | Structure (SMILES) |
| --- | --- |
| 400 to 1000 | CN(C)[C@@H]1CCN(c2ncc(Sc3ccc(C(N)=O)cc3)c(OCc3ccnc(N)c3)n2)C1 [compound 206, (R)-4-((4-((2-Aminopyridin-4-yl)methoxy)-2-(3-(dimethylamino)pyrrolidin-1-yl)pyrimidin-5-yl)thio)benzamide] |
| 400 to 1000 | CN(C)[C@@H]1CCN(c2ncc(Sc3ccc(C(N)=O)cc3)c(OCc3ccccc3)n2)C1 [compound 207, (R)-4-((4-(Benzyloxy)-2-(3-(dimethylamino)pyrrolidin-1-yl)pyrimidin-5-yl)thio)benzamide] |
| < 200 | COc1cc(COc2nc(N3CC[C@@H](N(C)C)C3)ncc2Sc2ccc(C(N)=O)cc2)ccc1F [compound 208, (R)-4-((2-(3-(Dimethylamino)pyrrolidin-1-yl)-4-((4-fluoro-3-methoxybenzyl)oxy)pyrimidin-5-yl)thio)benzamide] |
| < 200 | COc1cc(COc2nc(N3CC[C@@H](N(C)C)C3)ncc2Sc2ccc(C(N)=O)c(Cl)c2)ccc1F [compound 212, (R)-2-Chloro-4-((2-(3-(dimethylamino)pyrrolidin-1-yl)-4-((4-fluoro-3-methoxybenzyl)oxy)pyrimidin-5-yl)thio)benzamide] |
| ≥ 1200 | COc1cc(COc2nc(N3CC[C@@H](N)C3)ncc2Sc2ccc(C(N)=O)c(Cl)c2)ccc1F [compound 213, (R)-4-((2-(3-Aminopyrrolidin-1-yl)-4-((4-fluoro-3-methoxybenzyl)oxy)pyrimidin-5-yl)thio)-2-chlorobenzamide] |
| 400 to 1000 | CN[C@@H]1CCN(c2ncc(Sc3ccc(C(N)=O)c(Cl)c3)c(OCc3ccc(F)c(OC)c3)n2)C1 [compound 214, (R)-2-Chloro-4-((4-((4-fluoro-3-methoxybenzyl)oxy)-2-(3-(methylamino)pyrrolidin-1-yl)pyrimidin-5-yl)thio)benzamide] |
| < 200 | CN(C)[C@@H]1CCN(c2ncc(Sc3ccc(C(N)=O)c(C(F)(F)F)c3)c(OCc3cccc(Cl)c3)n2)C1 [compound 218, (R)-4-((4-((3-Chlorobenzyl)oxy)-2-(3-(dimethylamino)pyrrolidin-1-yl)pyrimidin-5-yl)thio)-2-(trifluoromethyl)benzamide] |
| 200 to 400 | CN(C)C1CN(c2ncc(Sc3ccc(C(N)=O)c(C(F)(F)F)c3)c(OCc3cccc(Cl)c3)n2)C1 [compound 225, 4-((4-((3-Chlorobenzyl)oxy)-2-(3-(dimethylamino)azetidin-1-yl)pyrimidin-5-yl)thio)-2-(trifluoromethyl)benzamide] |
| 200 to 400 | C#CCCCCN1CCN(c2ncc(Sc3ccc(C(N)=O)c(C(F)(F)F)c3)c(OCc3cccc(Cl)c3)n2)CC1 [compound 226, 4-((4-((3-Chlorobenzyl)oxy)-2-(4-(hex-5-yn-1-yl)piperazin-1-yl)pyrimidin-5-yl)thio)-2-(trifluoromethyl)benzamide] |
| ≥ 1200 | NC(=O)c1ccc(Sc2cnc(N3CCN(C4CC4)CC3)nc2OCc2cccc(Cl)c2)cc1C(F)(F)F [compound 227, 4-((4-((3-Chlorobenzyl)oxy)-2-(4-cyclopropylpiperazin-1-yl)pyrimidin-5-yl)thio)-2-(trifluoromethyl)benzamide] |
| < 200 | NC(=O)c1ccc(Sc2cnc(N3CCN(Cc4ccco4)CC3)nc2OCc2cccc(Cl)c2)cc1C(F)(F)F [compound 228, 4-((4-((3-Chlorobenzyl)oxy)-2-(4-(furan-2-ylmethyl)piperazin-1-yl)pyrimidin-5-yl)thio)-2-(trifluoromethyl)benzamide] |
| 200 to 400 | NC(=O)c1ccc(Sc2cnc(N3CCN(Cc4nccs4)CC3)nc2OCc2cccc(Cl)c2)cc1C(F)(F)F [compound 229, 4-((4-((3-Chlorobenzyl)oxy)-2-(4-(thiazol-2-ylmethyl)piperazin-1-yl)pyrimidin-5-yl)thio)-2-(trifluoromethyl)benzamide] |

The next lines start with the molecule.

| Structure (SMILES) | EC50 [nM] |
| --- | --- |
| CN1CCN(c2ncc(Sc3ccc(C(N)=O)c(C(F)(F)F)c3)c(OCc3ccc(F)cc3F)n2)CC1 [compound 135, 4-((4-((2,4-Difluorobenzyl)oxy)-2-(4-methylpiperazin-1-yl)pyrimidin-5-yl)thio)-2-(trifluoromethyl)benzamide] | 200 to 400 |
| COc1cccc(COc2nc(N3CCN(C)CC3)ncc2Sc2ccc(C(N)=O)c(C(F)(F)F)c2)c1 [compound 136, 4-((4-((3-Methoxybenzyl)oxy)-2-(4-methylpiperazin-1-yl)pyrimidin-5-yl)thio)-2-(trifluoromethyl)benzamide] | < 200 |
| COc1cc(COc2nc(N3CCN(C)CC3)ncc2Sc2ccc(C(N)=O)c(C(F)(F)F)c2)ccc1F [compound 137, 4-((4-((4-Fluoro-3-methoxybenzyl)oxy)-2-(4-methylpiperazin-1-yl)pyrimidin-5-yl)thio)-2-(trifluoromethyl)benzamide] | < 200 |
| COc1ccc(F)c(COc2nc(N3CCN(C)CC3)ncc2Sc2ccc(C(N)=O)c(C(F)(F)F)c2)c1 [compound 138, 4-((4-((2-Fluoro-5-methoxybenzyl)oxy)-2-(4-methylpiperazin-1-yl)pyrimidin-5-yl)thio)-2-(trifluoromethyl)benzamide] | < 200 |
| CN1CCN(c2ncc(Sc3ccc(C(N)=O)c(C(F)(F)F)c3)c(OCc3cccc(N(C)C)c3)n2)CC1 [compound 139, 4-((4-((3-(Dimethylamino)benzyl)oxy)-2-(4-methylpiperazin-1-yl)pyrimidin-5-yl)thio)-2-(trifluoromethyl)benzamide] | < 200 |
| CN1CCN(c2ncc(Sc3ccc(C(N)=O)c(C(F)(F)F)c3)c(NCc3cccc(Cl)c3)n2)CC1 [compound 141, 4-((4-((3-Chlorobenzyl)amino)-2-(4-methylpiperazin-1-yl)pyrimidin-5-yl)thio)-2-(trifluoromethyl)benzamide] | 1000 to 1200 |
| COc1cc(COc2nc(N3CCN(C)CC3)ncc2Sc2ccc(N)nc2)ccc1F [compound 151, 5-((4-((4-Fluoro-3-methoxybenzyl)oxy)-2-(4-methylpiperazin-1-yl)pyrimidin-5-yl)thio)pyridin-2-amine] | < 200 |
| CN1CCN(c2ncc(Sc3ccc(N)nc3)c(OCc3cccc(C#N)c3)n2)CC1 [compound 152, 3-(((5-((6-Aminopyridin-3-yl)thio)-2-(4-methylpiperazin-1-yl)pyrimidin-4-yl)oxy)methyl)benzonitrile] | 200 to 400 |
| CN1CCN(c2ncc(Sc3ccc(N)nc3)c(OCc3cccc(N(C)C)c3)n2)CC1 [compound 153, 5-((4-((3-(Dimethylamino)benzyl)oxy)-2-(4-methylpiperazin-1-yl)pyrimidin-5-yl)thio)pyridin-2-amine] | < 200 |
| CN1CCN(c2ncc(Sc3ccc(N)nc3)c(OCc3ccc(F)c(Cl)c3)n2)CC1 [compound 154, 5-((4-((3-Chloro-4-fluorobenzyl)oxy)-2-(4-methylpiperazin-1-yl)pyrimidin-5-yl)thio)pyridin-2-amine] | < 200 |
| CN1CCN(c2ncc(Sc3ccc(N)nc3)c(OCc3ccc(F)c(Br)c3)n2)CC1 [compound 155, 5-((4-((3-Bromo-4-fluorobenzyl)oxy)-2-(4-methylpiperazin-1-yl)pyrimidin-5-yl)thio)pyridin-2-amine] | < 200 |
| CN1CCN(c2ncc(Sc3ccc(N)nc3)c(OCc3ccc(F)c(C(F)(F)F)c3)n2)CC1 [compound 156, 5-((4-((4-Fluoro-3-(trifluoromethyl)benzyl)oxy)-2-(4-methylpiperazin-1-yl)pyrimidin-5-yl)thio)pyridin-2-amine] | 200 to 400 |
| COc1ccc(F)c(COc2nc(N3CCN(C)CC3)ncc2Sc2ccc(N)nc2)c1 [compound 157, 5-((4-((2-Fluoro-5-methoxybenzyl)oxy)-2-(4-methylpiperazin-1-yl)pyrimidin-5-yl)thio)pyridin-2-amine] | < 200 |
| COc1c(F)ccc(COc2nc(N3CCN(C)CC3)ncc2Sc2ccc(N)nc2)c1F [compound 158, 5-((4-((2,4-Difluoro-3-methoxybenzyl)oxy)-2-(4-methylpiperazin-1-yl)pyrimidin-5-yl)thio)pyridin-2-amine] | < 200 |
| NC(=O)c1ccc(Sc2cnc(N3CCNCC3)nc2OCc2ccccc2)cc1 [compound 167, 4-((4-(Benzyloxy)-2-(piperazin-1-yl)pyrimidin-5-yl)thio)benzamide] | ≥ 1200 |
| CC(=O)N1CCN(c2ncc(Sc3ccc(C(N)=O)cc3)c(OCc3ccccc3)n2)CC1 [compound 168, 4-((2-(4-Acetylpiperazin-1-yl)-4-(benzyloxy)pyrimidin-5-yl)thio)benzamide] | ≥ 1200 |
| C[C@@H]1CN(C)[C@@H](C)CN1c1ncc(Sc2ccc(C(N)=O)cc2)c(OCc2ccccc2)n1 [compound 182, 4-((4-(Benzyloxy)-2-((2R,5S)-2,4,5-trimethylpiperazin-1-yl)pyrimidin-5-yl)thio)benzamide] | ≥ 1200 |
| CN(C)c1cccc(COc2nc(-c3cc[nH]c3)ncc2Sc2ccc(C(N)=O)cc2)c1 [compound 187, 4-((4-((3-(Dimethylamino)benzyl)oxy)-2-(1H-pyrrol-3-yl)pyrimidin-5-yl)thio)benzamide] | 1000 to 1200 |
| COc1cccc(COc2nc(N3CCN(C)C[C@H]3C)ncc2Sc2ccc(C(N)=O)cc2)c1 [compound 193, (R)-4-((2-(2,4-dimethylpiperazin-1-yl)-4-((3-methoxybenzyl)oxy)pyrimidin-5-yl)thio)benzamide] | ≥ 1200 |
| COc1cccc(COc2nc(N3CC4CC3CN4C)ncc2Sc2ccc(C(N)=O)cc2)c1 (stereo not shown) [compound 195] | ≥ 1200 |
| C#CCN1CCN(c2ncc(Sc3ccc(C(N)=O)cc3)c(OCc3cccc(OC)c3)n2)CC1 [compound 198, 4-((4-((3-Methoxybenzyl)oxy)-2-(4-(prop-2-yn-1-yl)piperazin-1-yl)pyrimidin-5-yl)thio)benzamide] | < 200 |
| CN(C)[C@@H]1CCN(c2ncc(Sc3ccc(C(N)=O)cc3)c(OCc3cccc(OC(F)(F)F)c3)n2)C1 [compound 205, (R)-4-((2-(3-(Dimethylamino)pyrrolidin-1-yl)-4-((3-(trifluoromethoxy)benzyl)oxy)pyrimidin-5-yl)thio)benzamide] | 400 to 1000 |
